This is an account of results in patent US8435990B2, “Dihydropyrimidone amides as P2X7 modulators” (Roche Palo Alto LLC, priority 2009, dated 2013).

The structures appear in SMILES notation.

For the test, the target named is T1, human P2X7 (Homo sapiens, UniProt Q99572).
T1 construct: 1321N1 cells stably expressing the full length human P2X7 gene (1321N1-hP2X7)
T1 sequence (Q99572 1-595): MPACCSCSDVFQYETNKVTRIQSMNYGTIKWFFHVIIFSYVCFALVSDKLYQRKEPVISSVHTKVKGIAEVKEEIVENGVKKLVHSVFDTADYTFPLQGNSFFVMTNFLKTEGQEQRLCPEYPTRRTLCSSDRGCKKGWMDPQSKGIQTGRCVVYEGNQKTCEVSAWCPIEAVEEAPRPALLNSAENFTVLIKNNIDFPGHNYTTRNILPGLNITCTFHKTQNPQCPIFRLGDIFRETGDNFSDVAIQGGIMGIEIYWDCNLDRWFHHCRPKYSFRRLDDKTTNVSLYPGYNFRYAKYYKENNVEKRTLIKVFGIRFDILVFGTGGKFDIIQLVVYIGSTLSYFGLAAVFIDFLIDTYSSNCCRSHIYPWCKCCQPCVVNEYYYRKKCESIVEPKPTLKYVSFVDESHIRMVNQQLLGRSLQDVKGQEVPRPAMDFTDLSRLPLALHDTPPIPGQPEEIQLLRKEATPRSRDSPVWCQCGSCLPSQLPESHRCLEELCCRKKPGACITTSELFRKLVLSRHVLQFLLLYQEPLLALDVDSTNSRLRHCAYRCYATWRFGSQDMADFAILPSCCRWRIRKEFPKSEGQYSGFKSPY
In words: P2X7 modulator pIC50 of Table 1 (assay not given; Intracellular Calcium Flux (FLIPR) Assay assumed). Format: cell-based. As for the experimental part:
Intracellular Calcium Flux (FLIPR) Assay
Stock solutions of compounds were prepared from powders as a 10 mM DMSO stock solution. These solutions were stored at RT during the two week period of these experiments to prevent freeze-thaw of the DMSO stocks. The DMSO stocks were added to the appropriate assay buffer at a concentration of 10 μM, and then diluted serially to the final concentrations that were tested. No observable precipitate was formed at any time during this process. The aqueous solutions of compounds as well as ATP (Sigma A7699) and BzATP (Sigma B6396) were prepared fresh for each day of experiment.
1321N1 cells stably expressing the full length human P2X7 gene (1321N1-hP2X7) and HEK293 cells stably expressing the full length rat P2X7 gene (HEK293-rP2X7) were obtained from the Roche Cell Culture Facility. 1321N1-hP2X7 cells were grown in Dulbecco's Modified Eagle's Medium (DMEM) high glucose supplemented with 10% FBS and 250 μg/mL G418. HEK293-rP2X7 cells were grown in DMEM/F-12 supplemented with 10% FBS, 1 mM CaCl2, 2 mM MgCl2, 2 mM L-Glutamine and 500 μg/ml G418. Cells were split such that they never became >70% confluent.
On the day prior to the experiment, 1321N1-hP2X7 or HEK293-rP2X7 cells were released into suspension with calcium-free PBS+Versene and washed by centrifugation with calcium-free PBS to remove the Versene. Cells were resuspended in growth medium at a density of 2.5×10^5 cells/mL and seeded into black walled, clear bottom 96 well plates (50,000 cells/well) approximately 18 hr prior to intracellular calcium flux experiments.
On the day of the experiment, plates were washed with FLIPR buffer (calcium- and magnesium-free Hank's Balanced Salt Solution (HBSS) supplemented with 10 mM Hepes, 2.5 mM probenecid and 2 mM calcium chloride) using a BIO-TEK 96 channel plate washer and incubated with […] fluo-3 dye at 37° C. for one hr. The dye was then removed by plate washing and the cells were allowed to equilibrate for 20 min at room temperature with antagonist or vehicle (FLIPR buffer). Agonist (100 μM BzATP final concentration for hP2X7; 5μM BzATP final concentration or rP2X7) was added online with the FLIPR and fluorescence measurements made at 1 sec intervals for 60 sec followed by 3 sec intervals for a further 4 min (5 min total). A final addition of 5 μM ionomycin was made and the maximal BzATP-evoked fluorescence normalized to the maximal ionomycin-evoked fluorescence.
For the molecule `Cc1c(NC(=O)C2=CN(C)C(=O)N[C@H]2c2ccc(F)cc2)cccc1-c1ccn[nH]1` [Compound 23, (S)-4-(4-Fluoro-phenyl)-1-methyl-2-oxo-1,2,3,4-tetrahydro-pyrimidine-5-carboxylic acid [2-methyl-3-(2H-pyrazol-3-yl)-phenyl]-amide], the IC50 – broadly, the concentration that gives 50% inhibition – is 184 nM. As to `COC[C@H](O)Cn1nc(-c2ccc(C)c(NC(=O)C3=CN(C)C(=O)N[C@H]3c3ccc(F)cc3)c2)cc1C` [Compound 24, (S)-4-(4-Fluoro-phenyl)-1-methyl-2-oxo-1,2,3,4-tetrahydro-pyrimidine-5-carboxylic acid {5-[1-((R)-2-hydroxy-3-methoxy-propyl)-5-methyl-1H-pyrazol-3-yl]-2-methyl-phenyl}-amide], the IC50 is 50.7 nM. The figure for `COC[C@H](O)Cn1c(=O)cnn(-c2ccc(C)c(NC(=O)C3=CN(C)C(=O)N[C@H]3c3ccc(F)cc3)c2)c1=O` [Compound 25, (S)-4-(4-Fluoro-phenyl)-1-methyl-2-oxo-1,2,3,4-tetrahydro-pyrimidine-5-carboxylic acid {5-[4-((R)-2-hydroxy-3-methoxy-propyl)-3,5-dioxo-4,5-dihydro-3H-[1,2,4]triazin-2-yl]-2-methyl-phenyl}-amide] is 91.2 nM; for `Cc1ccc(-n2ncccc2=O)cc1NC(=O)C1=CN(C)C(=O)N[C@H]1c1ccc(F)cc1` [Compound 26] it is 20 nM; for `Cc1ccc(=O)n(-c2ccc(C)c(NC(=O)C3=CN(C)C(=O)N[C@H]3c3ccc(F)cc3)c2)n1` [Compound 27, (S)-4-(4-Fluoro-phenyl)-1-methyl-2-oxo-1,2,3,4-tetrahydro-pyrimidine-5-carboxylic acid [2-methyl-5-(3-methyl-6-oxo-6H-pyridazin-1-yl)-phenyl]-amide] it is 40.3 nM. For `Cc1ccc(-c2cncc(=O)[nH]2)cc1NC(=O)C1=CN(C)C(=O)N[C@H]1c1ccc(F)cc1` [Compound 28, (S)-4-(4-Fluoro-phenyl)-1-methyl-2-oxo-1,2,3,4-tetrahydro-pyrimidine-5-carboxylic acid [2-methyl-5-(6-oxo-1,6-dihydro-pyrazin-2-yl)-phenyl]-amide] the value was 153 nM. For `Cc1cc(Cl)c(OCCO)cc1NC(=O)C1=CN(C)C(=O)N[C@@H]1C1CCCCC1` [Compound 29, (R)-4-Cyclohexyl-1-methyl-2-oxo-1,2,3,4-tetrahydro-pyrimidine-5-carboxylic acid [4-chloro-5-(2-hydroxy-ethoxy)-2-methyl-phenyl]-amide] the value was 54.7 nM; for `Cc1cc(Cl)c(OCCO)cc1NC(=O)C1=CN(C)C(=O)N[C@H]1c1cccc(F)c1` [Compound 30, (S)-4-(3-Fluoro-phenyl)-1-methyl-2-oxo-1,2,3,4-tetrahydro-pyrimidine-5-carboxylic acid [4-chloro-5-(2-hydroxy-ethoxy)-2-methyl-phenyl]-amide], 20.2 nM; for `Cc1ccc2[nH]c(=O)ccc2c1NC(=O)C1=CN(C)C(=O)N[C@H]1c1ccc(F)cc1` [Compound 31, (S)-4-(4-Fluoro-phenyl)-1-methyl-2-oxo-1,2,3,4-tetrahydro-pyrimidine-5-carboxylic acid (6-methyl-2-oxo-1,2-dihydro-quinolin-5-yl)-amide], 160 nM. With `Cc1ccc(-c2ccn[nH]c2=O)cc1NC(=O)C1=CN(C)C(=O)N[C@H]1c1ccc(F)cc1` [Compound 32, (S)-4-(4-Fluoro-phenyl)-1-methyl-2-oxo-1,2,3,4-tetrahydro-pyrimidine-5-carboxylic acid [2-methyl-5-(3-oxo-2,3-dihydro-pyridazin-4-yl)-phenyl]-amide], the IC50 was 21.1 nM. The figure for `Cc1cc(-c2ccc(C)c(NC(=O)C3=CN(C)C(=O)N[C@H]3c3cccc(F)c3)c2)n[nH]1` [Compound 33, (S)-4-(3-Fluoro-phenyl)-1-methyl-2-oxo-1,2,3,4-tetrahydro-pyrimidine-5-carboxylic acid [2-methyl-5-(5-methyl-1H-pyrazol-3-yl)-phenyl]-amide] is 107 nM; for `CCc1c(NC(=O)C2=CN(C)C(=O)N[C@H]2c2ccc(F)cc2)ccc2nc(C)ccc12` [Compound 34, (S)-4-(4-Fluoro-phenyl)-1-methyl-2-oxo-1,2,3,4-tetrahydro-pyrimidine-5-carboxylic acid (5-ethyl-2-methyl-quinolin-6-yl)-amide] it is 53.7 nM.

As for `Cc1ccc(-n2ncc(=O)n(C)c2=O)cc1NC(=O)C1=CN(C)C(=O)N[C@H]1c1ccc(F)cc1` [Compound 35, (S)-4-(4-Fluoro-phenyl)-1-methyl-2-oxo-1,2,3,4-tetrahydro-pyrimidine-5-carboxylic acid [2-methyl-5-(4-methyl-3,5-dioxo-4,5-dihydro-3H-[1,2,4]triazin-2-yl)-phenyl]-amide], the half-maximal inhibitory concentration (IC50) is 106 nM. The figure for `COC[C@@H](O)Cn1nc(-c2ccc(C)c(NC(=O)C3=CN(C)C(=O)N[C@H]3c3ccc(F)cc3)c2)cc1C` [Compound 36, (S)-4-(4-Fluoro-phenyl)-1-methyl-2-oxo-1,2,3,4-tetrahydro-pyrimidine-5-carboxylic acid {5-[1-((S)-2-hydroxy-3-methoxy-propyl)-5-methyl-1H-pyrazol-3-yl]-2-methyl-phenyl}-amide] is 140 nM; for `Cc1ccc(-n2ncc(=O)n(C)c2=O)cc1NC(=O)C1=CN(C)C(=O)N[C@H]1c1cccc(F)c1` [Compound 37, (S)-4-(3-Fluoro-phenyl)-1-methyl-2-oxo-1,2,3,4-tetrahydro-pyrimidine-5-carboxylic acid [2-methyl-5-(4-methyl-3,5-dioxo-4,5-dihydro-3H-[1,2,4]triazin-2-yl)-phenyl]-amide] it is 36.3 nM; for `CCn1nccc(-c2ccc(C)c(NC(=O)C3=CN(C)C(=O)N[C@H]3c3ccc(F)cc3)c2)c1=O` [Compound 38, (S)-4-(4-Fluoro-phenyl)-1-methyl-2-oxo-1,2,3,4-tetrahydro-pyrimidine-5-carboxylic acid [5-(2-ethyl-3-oxo-2,3-dihydro-pyridazin-4-yl)-2-methyl-phenyl]-amide] it is 14.3 nM. The figure for `COCCN1C=C(C(=O)Nc2cc(OCCO)c(Cl)cc2C)[C@H](c2ccc(F)cc2)NC1=O` [Compound 39, (S)-4-(4-Fluoro-phenyl)-1-(2-methoxy-ethyl)-2-oxo-1,2,3,4-tetrahydro-pyrimidine-5-carboxylic acid [4-chloro-5-(2-hydroxy-ethoxy)-2-methyl-phenyl]-amide] is 43 nM; for `Cc1ccc(-c2ccc(=O)n(C)n2)cc1NC(=O)C1=CN(C)C(=O)N[C@H]1c1ccc(F)cc1` [Compound 40, (S)-4-(4-Fluoro-phenyl)-1-methyl-2-oxo-1,2,3,4-tetrahydro-pyrimidine-5-carboxylic acid [2-methyl-5-(1-methyl-6-oxo-1,6-dihydro-pyridazin-3-yl)-phenyl]-amide] it is 72.4 nM; for `Cc1ccc(-c2ccc(=O)[nH]n2)cc1NC(=O)C1=CN(C)C(=O)N[C@H]1c1ccc(F)cc1` [Compound 41, (S)-4-(4-Fluoro-phenyl)-1-methyl-2-oxo-1,2,3,4-tetrahydro-pyrimidine-5-carboxylic acid [2-methyl-5-(6-oxo-1,6-dihydro-pyridazin-3-yl)-phenyl]-amide] it is 29.2 nM. `Cc1cc2cnn(CCO)c2cc1NC(=O)C1=CN(C)C(=O)N[C@H]1c1ccc(F)cc1` [Compound 42]: the IC50 is 14.5 nM.
